For data set [1], the system named is wild type HBV. Description: Anti-HBV assay in AD-38 cell line (HBV in culture supernatant). It is filed as cell-based. The note with it: for EC50: read-out: Anti-HBV activity EC50; for EC90: read-out: Anti-HBV activity EC90. The protocol: The anti-HBV activity of the compounds was determined by treating the AD-38 cell line carrying wild type HBV under the control of tetracycline (see Ladner S. K., Otto M. J., Barker C. S., Zaifert K., Wang G. H., Guo J. T., Seeger C. & King R. W. Antimicrob. Agents Chemother. 1997, 41, 1715-20). Removal of tetracycline from the medium [Tet (−)] results in the production of HBV. The levels of HBV in the culture supernatant fluids from cells treated with the compounds were compared with that of the untreated controls. Control cultures with tetracycline [Tet (+)] were also maintained to determine the basal levels of HBV expression. 3TC was included as positive control.
The median effective concentrations (EC50) ranges of several of the compounds described herein against HBV are shown in Table 3: […]

Data set [2] is described as follows: Cellular toxicity assay in human PBM cells. It is filed as cell-based. The note with it: human PBM cells, read-out: Cytotoxicity, CC50 (μM) PBM. As for the experimental part: (§1) The toxicity of the compounds was assessed in Vero, human PBM, CEM (human lymphoblastoid), MT-2, and HepG2 cells, as described previously (see Schinazi R. F., Sommadossi J.-P., Saalmann V., Cannon D. L., Xie M.-Y., Hart G. C., Smith G. A. & Hahn E. F. Antimicrob. Agents Chemother. 1990, 34, 1061-67). Cycloheximide was included as positive cytotoxic control, and untreated cells exposed to solvent were included as negative controls. The cytotoxicity IC50 was obtained from the concentration-response curve using the median effective method described previously (see Chou T.-C. & Talalay P. Adv. Enzyme Regul. 1984, 22, 27-55; Belen'kii M. S. & Schinazi R. F. Antiviral Res. 1994, 25, 1-11).

The nature of data set [3]: Cellular toxicity assay in Vero cells. Format: cell-based. Particulars: African green monkey, Vero cells; read-out: Cytotoxicity; CC50 (μM) VERO. The protocol: as §1
Data set [4] can be described thus: Cellular toxicity assay in HepG2 cells. Particulars: human, HepG2 cells; read-out: Cytotoxicity; CC50 (μM) HepG2. Format: cell-based. As for the experimental part: as §1
A short description of data set [5]: Cellular toxicity assay in CEM cells. It is filed as cell-based, human. The note with it: human, CEM lymphoblastoid cells; CEM cells; read-out: Cytotoxicity; CC50 (μM) CEM. As for the experimental part: as §1
[6] abbreviates: Hepatitis B virus, AD-38 cell line, Tet (-).

Like-named read-outs stand apart in the source and are kept apart here.

Usually EC50 stands for the midpoint of the concentration-response curve. What is called EC90 is the concentration at which the effect reaches the 90% level. `Nc1ccn([C@@H]2CS[C@H](CO)O2)c(=O)n1` [Compound 3TC, lamivudine, reference compound]: in data set [1] (setting [6]), the EC50 lay within 100 to 1000 nM and the EC90 was 1 to 10 µM.
For `Fc1ccc(C2N=C(c3ccccn3)NC(CN3CCOCC3)=C2C#CC2CC2)c(Cl)c1` (stereo not drawn) [Compound 8, 4-((6-(2-Chloro-4-fluorophenyl)-5-(cyclopropylethynyl)-2-(pyridin-2-yl)-3,6-dihydropyrimidin-4-yl)methyl)morpholine], the CC50 in data set [2] (human) was 62 µM; in data set [3] it was 49 µM; in data set [4], 36 µM; in data set [5], 20 µM. Further, the EC50 in data set [1] (setting [6]) lay within 100 to 1000 nM. In data set [1] (setting [6]), the EC90 was in the range of 0.1 to 1 µM.
Take `CCOP(=O)(Cn1cc(CNC(=O)C(=O)c2c(C)c(C(=O)Nc3ccc(F)c(F)c3)n(C)c2C)nn1)OCC` [Compound 68, Diethyl((4-((2-(5-((3,4-difluorophenyl)carbamoyl)-1,2,4-trimethyl-1H-pyrrol-3-yl)-2-oxoacetamido)methyl)-1H-1,2,3-triazol-1-yl)methyl) phosphonate]: the CC50 in data set [2] was 70 µM; in data set [4], above 100 µM. Besides, the EC50 in data set [1] (Hepatitis B virus) lay in the range of 100 to 1000 nM.
Consider `Cc1c(C(=O)C(=O)NCc2cn(CCCCCCn3cc(CNC(=O)C(=O)c4c(C)c(C(=O)Nc5ccc(F)c(F)c5)n(C)c4C)nn3)nn2)c(C)n(C)c1C(=O)Nc1ccc(F)c(F)c1` [Compound 71, 4,4′-(2,2′-(((Hexane-1,6-diylbis(1H-1,2,3-triazole-1,4-diyl))bis(methylene))bis(azanediyl))bis(2-oxoacetyl))bis(N-(3,4-difluorophenyl)-1,3,5-trimethyl-1H-pyrrole-2-carboxamide)], for which, in data set [2] (human), the CC50 was above 100 µM. In data set [1] (setting [6]), the EC50 fell in the range of 100 to 1000 nM and the EC90 was 1 to 10 µM. Besides, in data set [4], the CC50 was above 100 µM.
As for `Cc1c(C(=O)C(=O)NCc2cn(CCCCCCCCn3cc(CNC(=O)C(=O)c4c(C)c(C(=O)Nc5ccc(F)c(F)c5)n(C)c4C)nn3)nn2)c(C)n(C)c1C(=O)Nc1ccc(F)c(F)c1` [Compound 74, 4,4′-(2,2′-(((Octane-1,8-diylbis(1H-1,2,3-triazole-1,4-diyl))bis(methylene))bis(azanediyl))bis(2-oxoacetyl))bis(N-(3,4-difluorophenyl)-1,3,5-trimethyl-1H-pyrrole-2-carboxamide)], in data set [2] (human), the CC50 was above 100 µM. Moreover, in data set [1] (setting [6]), the EC50 was in the range of 0.1 to 1 nM and the EC90 was 0.001 to 0.01 µM. In addition, the CC50 in data set [4] is above 100 µM.
Take `Cc1c(C(=O)C(=O)NCc2cn(CCCCCCCCCCn3cc(CNC(=O)C(=O)c4c(C)c(C(=O)Nc5ccc(F)c(F)c5)n(C)c4C)nn3)nn2)c(C)n(C)c1C(=O)Nc1ccc(F)c(F)c1` [Compound 77, 4,4′-(2,2′-(((decane-1,10-diylbis(1H-1,2,3-triazole-1,4-diyl))bis(methylene))bis(azanediyl))bis (2-oxoacetyl))bis(N-(3,4-difluorophenyl)-1,3,5-trimethyl-1H-pyrrole-2-carboxamide)]: the CC50 in data set [2] (human) was above 100 µM. In data set [1] (setting [6]), the concentration giving a half-maximal response (EC50) is 1 to 10 nM and the EC90 is 0.1 to 1 µM. Also, in data set [4], the CC50 was above 100 µM.
With `Cc1c(C(=O)C(=O)NCc2cn(CCOCCn3cc(CNC(=O)C(=O)c4c(C)c(C(=O)Nc5ccc(F)c(F)c5)n(C)c4C)nn3)nn2)c(C)n(C)c1C(=O)Nc1ccc(F)c(F)c1` [Compound 85, 4,4′-(2,2′-((((oxybis(ethane-2,1-diyl))bis(1H-1,2,3-triazole-1,4-diyl))bis(methylene))bis(azanediyl))bis(2-oxoacetyl))bis(N-(3,4-difluorophenyl)-1,3,5-trimethyl-1H-pyrrole-2-carboxamide)], the EC50 in data set [1] (setting [6]) lay in the range of 1000 to 10000 nM.
Turning to `Cc1c(C(=O)C(=O)NCc2cn(CCOCCOCCn3cc(CNC(=O)C(=O)c4c(C)c(C(=O)Nc5ccc(F)c(F)c5)n(C)c4C)nn3)nn2)c(C)n(C)c1C(=O)Nc1ccc(F)c(F)c1` [Compound 89, 4,4′-(2,2′-(((((Ethane-1,2-diylbis(oxy))bis(ethane-2,1-diyl))bis(1H-1,2,3-triazole-1,4-diyl))bis (methylene))bis(azanediyl))bis(2-oxoacetyl))bis(N-(3,4-difluorophenyl)-1,3,5-trimethyl-1H-pyrrole-2-carboxamide)], the figures for the CC50 in data set [2] (human) and in data set [4] were 68 µM and above 100 µM, respectively. Moreover, the EC50 in data set [1] (setting [6]) lay in the range of 1000 to 10000 nM.
In the same order, the values of `Cc1c(C(=O)C(=O)NCc2cn(CCOCCOCCOCCn3cc(CNC(=O)C(=O)c4c(C)c(C(=O)Nc5ccc(F)c(F)c5)n(C)c4C)nn3)nn2)c(C)n(C)c1C(=O)Nc1ccc(F)c(F)c1` [Compound 94, 4,4′-(2,2′-((((((oxybis(ethane-2,1-diyl))bis(oxy))bis(ethane-2,1-diyl))bis(1H-1,2,3-triazole-1,4-diyl))bis(methylene))bis(azanediyl))bis(2-oxoacetyl))bis(N-(3,4-difluorophenyl)-1,3,5-trimethyl-1H-pyrrole-2-carboxamide)] are above 100 µM, above 100 µM and 1 to 10 nM.
As for `Cc1c(C(=O)C(=O)NCc2cn(CCOCCOCCOCCOCCOCCn3cc(CNC(=O)C(=O)c4c(C)c(C(=O)Nc5ccc(F)c(F)c5)n(C)c4C)nn3)nn2)c(C)n(C)c1C(=O)Nc1ccc(F)c(F)c1` [Compound 95, 4,4′-(2,2′-((((3,6,9,12,15-Pentaoxaheptadecane-1,17-diyl)bis(1H-1,2,3-triazole-1,4-diyl))bis (methylene))bis(azanediyl))bis(2-oxoacetyl))bis(N-(3,4-difluorophenyl)-1,3,5-trimethyl-1H-pyrrole-2-carboxamide)], the EC50 in data set [1] (AD-38 cell line, Tet (-)) is 10 to 100 nM.
As to `Cc1c(C(=O)C(=O)NCc2cn(CCOCCOCC(COCCOCCN=[N+]=[N-])(COCCOCCN=[N+]=[N-])COCCOCCn3cc(CNC(=O)C(=O)c4c(C)c(C(=O)Nc5ccc(F)c(F)c5)n(C)c4C)nn3)nn2)c(C)n(C)c1C(=O)Nc1ccc(F)c(F)c1` [Compound 108, 4,4′-(2,2′-((((8,8-bis((2-(2-azidoethoxy)ethoxy)methyl)-3,6,10,13-tetraoxapentadecane-1,15-diyl)bis(1H-1,2,3-triazole-1,4-diyl))bis(methylene))bis(azanediyl))bis(2-oxoacetyl))bis(N-(3,4-difluorophenyl)-1,3,5-trimethyl-1H-pyrrole-2-carboxamide)], the CC50 in data set [2] (human) was above 100 µM. In addition, in data set [1] (setting [6]), the EC50 lay within 10 to 100 nM and the concentration for an effect of 90% (EC90) fell in the range of 0.1 to 1 µM. In addition, the CC50 in data set [4] is above 100 µM.
As to `Cc1c(C(=O)C(=O)NCc2cn(CCOCCOCC(COCCOCCN=[N+]=[N-])(COCCOCCn3cc(CNC(=O)C(=O)c4c(C)c(C(=O)Nc5ccc(F)c(F)c5)n(C)c4C)nn3)COCCOCCn3cc(CNC(=O)C(=O)c4c(C)c(C(=O)Nc5ccc(F)c(F)c5)n(C)c4C)nn3)nn2)c(C)n(C)c1C(=O)Nc1ccc(F)c(F)c1` [Compound 109], the CC50 in data set [2] (human) is above 100 µM. Also, in data set [1] (setting [6]), the EC50 was 100 to 1000 nM and the EC90 was 1 to 10 µM. The CC50 in data set [4] was above 100 µM.
Turning to `Cc1c(C(=O)C(=O)NCc2cn(CCOCCOCC(COCCOCCn3cc(CNC(=O)C(=O)c4c(C)c(C(=O)Nc5ccc(F)c(F)c5)n(C)c4C)nn3)(COCCOCCn3cc(CNC(=O)C(=O)c4c(C)c(C(=O)Nc5ccc(F)c(F)c5)n(C)c4C)nn3)COCCOCCn3cc(CNC(=O)C(=O)c4c(C)c(C(=O)Nc5ccc(F)c(F)c5)n(C)c4C)nn3)nn2)c(C)n(C)c1C(=O)Nc1ccc(F)c(F)c1` [Compound 110], the CC50 in data set [2] (human) is above 100 µM. Besides, in data set [1] (setting [6]), the EC50 lay in the range of 100 to 1000 nM and the EC90 fell in the range of 1 to 10 µM. The CC50 in data set [4] was above 100 µM.
Regarding `C#CCNC(=O)C(=O)c1c(C)c(C(=O)Nc2ccc(F)c(F)c2)n(CC#CC)c1C` [Compound 119, 1-(But-2-yn-1-yl)-N-(3,4-difluorophenyl)-3,5-dimethyl-4-(2-oxo-2-(prop-2-yn-1-ylamino)acetyl)-1H-pyrrole-2-carboxamide], the CC50 in data set [2] (human) and in data set [4] was above 100 µM each time. The 50% effective concentration (EC50) in data set [1] (Hepatitis B virus) was 10 to 100 nM.
As for `C#CCn1c(C)c(C(=O)C(=O)NC(C)(C)C#C)c(C)c1C(=O)Nc1ccc(F)c(F)c1` [Compound 120, N-(3,4-Difluorophenyl)-3,5-dimethyl-4-(2-((2-methylbut-3-yn-2-yl)amino)-2-oxoacetyl)-1-(prop-2-yn-1-yl)-1H-pyrrole-2-carboxamide], the CC50 in data set [2] (human) and in data set [4] was above 100 µM in each case. Besides, the EC50 in data set [1] (setting [6]) was in the range of 0.01 to 0.1 nM. Besides, the EC90 in data set [1] (setting [6]) fell in the range of 0.001 to 0.01 µM.
For `Cc1c(C(=O)C(=O)NCc2cn(CCOCCOCC(COCCOCCn3cc(CNC(=O)C(=O)c4c(C)c(C(=O)Nc5ccc(F)c(F)c5)n(C)c4C)nn3)COCCOCCn3cc(CNC(=O)C(=O)c4c(C)c(C(=O)Nc5ccc(F)c(F)c5)n(C)c4C)nn3)nn2)c(C)n(C)c1C(=O)Nc1ccc(F)c(F)c1` [Compound 122], the EC50 in data set [1] (setting [6]) was in the range of 100 to 1000 nM.

These data come from patent US20230056135A1, “MONOMER AND MULTIMERIC ANTI-HBV AGENTS” (priority 2018, published 2023).
